Data on 27 molecules can be found in PubChem BioAssay AID489010 (Southern Research Specialized Biocontainment Screening …, 2010).

Calls of active or inactive are those of the source. No rule for the calls is given here.

This assay can be described thus: M. tuberculosis H37Rv growth inhibition, dose response, strain H37Rv (AID 489010). Conditions: M. tuberculosis H37Rv growth inhibition; at 100 µM (top of the series).
As to `Cc1nn(C)c(C)c1C1C(C#N)=C(N)Oc2n[nH]c(C)c21` (configuration not stated), the growth inhibition is 2.21% (inactive).

Consider `Cc1cc(-c2[nH]nc3c2C(c2ccsc2)C(C#N)=C(N)O3)c(C)s1` (configuration not stated), for which the growth inhibition was 3.11% (inactive).

In the case of `CC(/C=N/NC(=O)Cc1cc(=O)[nH][nH]1)=C\c1ccccc1`, the growth inhibition is 2.34% (inactive).

As for `CCOC(=O)C1CCN(C(=O)c2c(C)oc3c2C(=O)c2ccccc2C3=O)CC1`, the growth inhibition was 27.9% (inactive).

As to `O=C(CCCN1C(=O)/C(=C/c2cccs2)SC1=S)Nc1ccc(O)cc1`, the growth inhibition is 21.9% (inactive).

Turning to `O=C(Cc1cc(=O)[nH][nH]1)N/N=C/c1ccccc1Cl`, the growth inhibition is 2.61% (inactive).

`CCCCCCOC(=O)c1ccc(OC(=O)c2cccnc2)cc1`: the growth inhibition was 26.1% (inactive).

For the molecule `O=C(Cc1cc(=O)[nH][nH]1)N/N=C/C=C/c1ccccc1`, the growth inhibition is -3.45% (inactive).

In the case of `CCCCc1ccc(NC(=O)CSCc2cc(=O)[nH][nH]2)cc1`, the growth inhibition is -4.95% (inactive).

On to `COc1ccc(/C=C2/C(=O)N(c3ccccc3)N=C2C)cc1OC`, for which the growth inhibition is 3.28% (inactive).

As for `Cc1ccc(C2C(C#N)=C(N)Oc3n[nH]c(-c4cccs4)c32)cc1` (configuration not stated), the growth inhibition is 3.65% (inactive).

For `N#CC1=C(N)Oc2n[nH]c(-c3cccs3)c2C1c1cccs1` (configuration not stated), the growth inhibition is -0.42% (inactive).

For the molecule `CCCc1[nH]nc2c1C(c1ccoc1)C(C#N)=C(N)O2` (configuration not stated), the growth inhibition is 1.3% (inactive).

With `CCCc1c(-c2ccc(O)cc2)nn(-c2ccc(O)cc2)c1-c1ccc(O)cc1`, the growth inhibition was 6.41% (inactive).

Turning to `CC(=O)Nc1cc(OC(=O)c2ccco2)cc(OC(=O)c2ccco2)c1`, the growth inhibition was 1.93% (inactive).

Regarding `CSCCC1C(C#N)=C(N)Oc2n[nH]c(-c3cccs3)c21` (configuration not stated), the growth inhibition is 11.2% (inactive).

For the molecule `N#CC(C#N)C(c1ccsc1)c1c(-c2ccccc2)[nH][nH]c1=O` (configuration not stated), the growth inhibition is -3.85% (inactive).

For `Cc1ccc(-c2cc(=O)[nH][nH]2)c(C)c1`, the growth inhibition is 1.66% (inactive).

Take `CC1(C)N=C(SCC(=O)Nc2ccc(Cl)cc2)C(c2ccc(Cl)cc2)=N1`: the growth inhibition was 2.13% (inactive).

In the case of `COc1ccc(-c2[nH]nc3c2C(c2ccoc2)C(C#N)=C(N)O3)cc1` (configuration not stated), the growth inhibition is -0.09% (inactive).

As for `Cc1nc2ccccc2c2c1C(=O)N(C)C2=O`, the growth inhibition was -4.82% (inactive).

For `Cc1ccc(-c2[nH]nc3c2C(c2ccc(OC(=O)N4CCOCC4)cc2)C(C#N)=C(N)O3)cc1` (configuration not stated), the growth inhibition is 3.59% (inactive).

On to `Cc1ccc(O)c(N=CC2=C(O)c3ccccc3C2=O)c1`, for which the growth inhibition is 9.56% (inactive).

With `COC(=O)C(C#N)C(c1cccnc1)c1c(C)[nH][nH]c1=O` (configuration not stated), the growth inhibition is -0.4% (inactive).

`N#CC1=C(N)Oc2n[nH]c(-c3cccs3)c2C1c1ccccc1C(=O)O` (configuration not stated): the growth inhibition was 10.2% (inactive).

For the molecule `O=C(Cc1cc(=O)[nH][nH]1)N/N=C/c1c(F)cccc1Cl`, the growth inhibition is 1.68% (inactive).

`COc1ccc(N(C(=O)COc2cccc(C)c2)S(=O)(=O)c2ccc(C)cc2)cc1`: the growth inhibition is 16.3% (inactive).
